How the values were obtained:
[1] = target: T1, proteins of U2OS cell lysate (Homo sapiens, UniProt P49336); assay: Drug affinity chromatography with c-ponatinib and LC-MS/MS (ponatinib interactome); assay type: binding; details: CDK8, Cyclin-dependent kinase 8
T1 construct: Proteins enriched by c-ponatinib from U2OS cell lysate; endogenous in cells; host or cells: U2OS cell lysate
In short: (§1)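 U2OS cell lysate in NP-40 lysis buffer (2 mg protein per pulldown) was incubated with amine-derivatized NHS beads for 2 h at 4 °C. Bound proteins were washed, eluted with 100 mM formic acid, reduced, alkylated and trypsin-digested, then identified by nano-UPLC–MS/MS on Orbitrap instruments with a 60 min gradient.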

[2] = target: T2, proteins of U2OS cell lysate (Homo sapiens, UniProt Q15233); assay: as above; assay type: binding; details: NONO, Non-POU domain-containing octamer-binding protein
T2 construct: Proteins enriched by c-ponatinib from U2OS cell lysate; endogenous in cells; host or cells: U2OS cell lysate
In short: as §1

[3] = target: T3, proteins of U2OS cell lysate (Homo sapiens, UniProt P35232); assay: as above; assay type: binding; details: PHB, Prohibitin
T3 construct: Proteins enriched by c-ponatinib from U2OS cell lysate; endogenous in cells; host or cells: U2OS cell lysate
In short: as §1

[4] = target: T4, proteins of U2OS cell lysate (Homo sapiens, UniProt Q09666); assay: as above; assay type: binding; details: AHNAK, Neuroblast differentiation-associated protein AHNAK
T4 construct: Proteins enriched by c-ponatinib from U2OS cell lysate; endogenous in cells; host or cells: U2OS cell lysate
In short: as §1

[5] = target: T5, proteins of U2OS cell lysate (Homo sapiens, UniProt P00403); assay: as above; assay type: binding; details: MT-CO2, Cytochrome c oxidase subunit 2
T5 construct: Proteins enriched by c-ponatinib from U2OS cell lysate; endogenous in cells; host or cells: U2OS cell lysate
In short: as §1

[6] = target: T6, proteins of U2OS cell lysate (Homo sapiens, UniProt Q13418); assay: as above; assay type: binding; details: ILK, Integrin-linked protein kinase
T6 construct: Proteins enriched by c-ponatinib from U2OS cell lysate; endogenous in cells; host or cells: U2OS cell lysate
In short: as §1

[7] = target: T7, proteins of U2OS cell lysate (Homo sapiens, UniProt Q13011); assay: as above; assay type: binding; details: ECH1, Delta(3,5)-Delta(2,4)-dienoyl-CoA isomerase, mitochondrial
T7 construct: Proteins enriched by c-ponatinib from U2OS cell lysate; endogenous in cells; host or cells: U2OS cell lysate
In short: as §1

[8] = target: T8, proteins of U2OS cell lysate (Homo sapiens, UniProt P11021); assay: as above; assay type: binding; details: HSPA5, 78 kDa glucose-regulated protein
T8 construct: Proteins enriched by c-ponatinib from U2OS cell lysate; endogenous in cells; host or cells: U2OS cell lysate
In short: as §1

[9] = target: T9, proteins of U2OS cell lysate (Homo sapiens, UniProt P07948); assay: as above; assay type: binding; details: LYN, Tyrosine-protein kinase Lyn
T9 construct: Proteins enriched by c-ponatinib from U2OS cell lysate; endogenous in cells; host or cells: U2OS cell lysate
In short: as §1

[10] = target: T10, proteins of U2OS cell lysate (Homo sapiens, UniProt P62714); assay: as above; assay type: binding; details: PPP2CB, Serine/threonine-protein phosphatase 2A catalytic subunit beta isoform
T10 construct: Proteins enriched by c-ponatinib from U2OS cell lysate; endogenous in cells; host or cells: U2OS cell lysate
In short: as §1

[11] = target: T11, proteins of U2OS cell lysate (Homo sapiens, UniProt P07437); assay: as above; assay type: binding; details: TUBB;TUBB2A, Tubulin beta chain
T11 construct: Proteins enriched by c-ponatinib from U2OS cell lysate; endogenous in cells; host or cells: U2OS cell lysate
In short: as §1

[12] = target: T12, proteins of U2OS cell lysate (Homo sapiens, UniProt P06748); assay: as above; assay type: binding; details: NPM1, Nucleophosmin
T12 construct: Proteins enriched by c-ponatinib from U2OS cell lysate; endogenous in cells; host or cells: U2OS cell lysate
In short: as §1

[13] = target: T13, proteins of U2OS cell lysate (Homo sapiens, UniProt P55084); assay: as above; assay type: binding; details: HADHB, Trifunctional enzyme subunit beta, mitochondrial
T13 construct: Proteins enriched by c-ponatinib from U2OS cell lysate; endogenous in cells; host or cells: U2OS cell lysate
In short: as §1

C57Bl6/J mice = test system: C57Bl6/J mice; set-up: method as in Nachbur et al, 2015; details: ref Nachbur et al, 2015; cited from earlier work

T9 sequence (P07948 whole entry): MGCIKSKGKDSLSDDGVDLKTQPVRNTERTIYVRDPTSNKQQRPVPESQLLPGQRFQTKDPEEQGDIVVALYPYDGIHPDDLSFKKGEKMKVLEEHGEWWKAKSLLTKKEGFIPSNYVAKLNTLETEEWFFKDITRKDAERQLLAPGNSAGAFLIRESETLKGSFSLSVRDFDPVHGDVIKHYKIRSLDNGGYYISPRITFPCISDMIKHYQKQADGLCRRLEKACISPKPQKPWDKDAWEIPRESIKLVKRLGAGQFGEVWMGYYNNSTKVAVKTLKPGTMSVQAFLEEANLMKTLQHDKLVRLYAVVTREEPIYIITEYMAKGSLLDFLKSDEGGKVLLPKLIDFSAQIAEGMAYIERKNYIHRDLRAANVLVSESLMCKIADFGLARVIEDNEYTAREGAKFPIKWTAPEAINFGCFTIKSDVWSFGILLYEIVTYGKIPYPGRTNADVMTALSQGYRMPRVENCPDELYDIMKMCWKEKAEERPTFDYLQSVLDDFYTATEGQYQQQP
T7 sequence (Q13011 34-328): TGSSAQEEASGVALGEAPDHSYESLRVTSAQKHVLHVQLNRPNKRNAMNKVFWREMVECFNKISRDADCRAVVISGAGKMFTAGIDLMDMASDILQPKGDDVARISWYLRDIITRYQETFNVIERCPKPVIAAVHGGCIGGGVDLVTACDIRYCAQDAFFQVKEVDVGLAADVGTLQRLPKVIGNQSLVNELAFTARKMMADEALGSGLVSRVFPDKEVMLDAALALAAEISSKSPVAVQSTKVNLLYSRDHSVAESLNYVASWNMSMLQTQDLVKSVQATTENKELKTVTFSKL
T12 sequence (P06748 whole entry): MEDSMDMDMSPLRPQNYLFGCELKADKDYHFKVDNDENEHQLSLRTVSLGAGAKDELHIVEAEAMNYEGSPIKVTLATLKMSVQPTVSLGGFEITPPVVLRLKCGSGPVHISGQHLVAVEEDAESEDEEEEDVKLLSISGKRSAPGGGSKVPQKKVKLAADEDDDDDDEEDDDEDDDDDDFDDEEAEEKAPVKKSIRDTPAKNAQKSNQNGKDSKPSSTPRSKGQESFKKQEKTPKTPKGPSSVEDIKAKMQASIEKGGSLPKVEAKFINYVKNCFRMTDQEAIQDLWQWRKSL
T2 sequence (Q15233 whole entry, the tested form may be a part): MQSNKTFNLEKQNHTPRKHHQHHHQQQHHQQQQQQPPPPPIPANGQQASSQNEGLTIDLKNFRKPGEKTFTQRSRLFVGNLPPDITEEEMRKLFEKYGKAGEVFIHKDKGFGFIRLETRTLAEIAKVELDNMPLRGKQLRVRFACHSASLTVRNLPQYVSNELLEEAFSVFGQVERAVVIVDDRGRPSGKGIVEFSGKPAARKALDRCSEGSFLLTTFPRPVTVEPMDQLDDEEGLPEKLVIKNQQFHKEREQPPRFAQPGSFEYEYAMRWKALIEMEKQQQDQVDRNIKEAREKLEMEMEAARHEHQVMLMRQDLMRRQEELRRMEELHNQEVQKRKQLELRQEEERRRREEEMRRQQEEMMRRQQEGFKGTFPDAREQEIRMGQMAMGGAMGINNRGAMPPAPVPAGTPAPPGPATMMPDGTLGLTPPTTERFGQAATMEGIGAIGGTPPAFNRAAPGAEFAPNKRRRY
T6 sequence (Q13418 whole entry): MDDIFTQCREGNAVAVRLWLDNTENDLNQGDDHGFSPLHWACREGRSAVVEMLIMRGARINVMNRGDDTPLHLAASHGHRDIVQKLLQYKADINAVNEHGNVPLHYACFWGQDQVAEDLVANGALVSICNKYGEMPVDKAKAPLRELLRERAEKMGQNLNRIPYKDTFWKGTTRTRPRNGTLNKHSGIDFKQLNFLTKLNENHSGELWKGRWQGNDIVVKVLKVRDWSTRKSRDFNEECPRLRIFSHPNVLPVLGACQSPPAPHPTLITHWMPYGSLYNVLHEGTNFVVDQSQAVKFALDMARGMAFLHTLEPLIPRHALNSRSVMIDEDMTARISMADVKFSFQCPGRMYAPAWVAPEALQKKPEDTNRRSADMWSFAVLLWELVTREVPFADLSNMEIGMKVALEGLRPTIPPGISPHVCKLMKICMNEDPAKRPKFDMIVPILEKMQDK
T13 sequence (P55084 34-474): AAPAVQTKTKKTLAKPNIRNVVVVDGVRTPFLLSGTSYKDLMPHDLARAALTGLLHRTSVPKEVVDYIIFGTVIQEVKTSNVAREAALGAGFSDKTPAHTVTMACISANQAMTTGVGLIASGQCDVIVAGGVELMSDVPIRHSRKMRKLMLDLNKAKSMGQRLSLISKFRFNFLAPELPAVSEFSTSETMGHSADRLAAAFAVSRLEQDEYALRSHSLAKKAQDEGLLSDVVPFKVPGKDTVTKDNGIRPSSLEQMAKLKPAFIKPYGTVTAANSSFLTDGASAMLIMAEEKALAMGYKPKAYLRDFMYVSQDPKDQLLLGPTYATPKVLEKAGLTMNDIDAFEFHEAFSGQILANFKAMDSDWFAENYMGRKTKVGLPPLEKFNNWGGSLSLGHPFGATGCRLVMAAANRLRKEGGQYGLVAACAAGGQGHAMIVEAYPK
T5 sequence (P00403 whole entry): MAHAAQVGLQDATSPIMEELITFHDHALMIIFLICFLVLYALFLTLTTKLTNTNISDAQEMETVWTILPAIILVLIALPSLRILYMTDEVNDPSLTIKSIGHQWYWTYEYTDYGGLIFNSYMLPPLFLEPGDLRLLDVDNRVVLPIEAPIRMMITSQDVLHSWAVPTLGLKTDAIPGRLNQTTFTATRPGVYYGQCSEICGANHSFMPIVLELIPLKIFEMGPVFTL
T11 sequence (P07437 whole entry): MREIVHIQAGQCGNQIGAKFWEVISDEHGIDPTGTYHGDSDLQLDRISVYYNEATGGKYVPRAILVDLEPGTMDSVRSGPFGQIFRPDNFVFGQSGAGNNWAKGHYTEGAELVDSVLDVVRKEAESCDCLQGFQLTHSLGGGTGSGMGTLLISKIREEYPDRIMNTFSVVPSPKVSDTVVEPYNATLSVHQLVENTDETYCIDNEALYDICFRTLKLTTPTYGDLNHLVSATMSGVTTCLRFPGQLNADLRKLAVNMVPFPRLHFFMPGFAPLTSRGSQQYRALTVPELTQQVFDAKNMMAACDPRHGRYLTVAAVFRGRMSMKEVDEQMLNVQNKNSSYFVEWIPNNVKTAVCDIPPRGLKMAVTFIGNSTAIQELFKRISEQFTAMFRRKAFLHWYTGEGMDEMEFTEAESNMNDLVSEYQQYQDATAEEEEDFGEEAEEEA
T3 sequence (P35232 whole entry): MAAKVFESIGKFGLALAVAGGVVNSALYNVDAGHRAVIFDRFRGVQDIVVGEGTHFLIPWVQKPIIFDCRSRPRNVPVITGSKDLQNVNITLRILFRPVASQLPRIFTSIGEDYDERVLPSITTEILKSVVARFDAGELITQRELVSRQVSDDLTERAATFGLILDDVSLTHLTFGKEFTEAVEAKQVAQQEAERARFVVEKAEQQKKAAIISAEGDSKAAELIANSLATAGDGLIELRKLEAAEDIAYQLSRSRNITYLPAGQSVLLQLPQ
T10 sequence (P62714 whole entry, canonical isoform): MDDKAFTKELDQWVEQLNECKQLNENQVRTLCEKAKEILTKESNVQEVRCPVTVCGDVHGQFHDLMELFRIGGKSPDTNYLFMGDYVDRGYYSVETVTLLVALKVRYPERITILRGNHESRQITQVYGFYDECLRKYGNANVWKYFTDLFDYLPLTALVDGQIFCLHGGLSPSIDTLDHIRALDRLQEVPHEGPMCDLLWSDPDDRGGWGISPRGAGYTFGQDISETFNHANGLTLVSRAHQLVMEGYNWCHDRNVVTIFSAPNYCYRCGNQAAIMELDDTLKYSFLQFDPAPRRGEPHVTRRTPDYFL
T1 sequence (P49336 whole entry): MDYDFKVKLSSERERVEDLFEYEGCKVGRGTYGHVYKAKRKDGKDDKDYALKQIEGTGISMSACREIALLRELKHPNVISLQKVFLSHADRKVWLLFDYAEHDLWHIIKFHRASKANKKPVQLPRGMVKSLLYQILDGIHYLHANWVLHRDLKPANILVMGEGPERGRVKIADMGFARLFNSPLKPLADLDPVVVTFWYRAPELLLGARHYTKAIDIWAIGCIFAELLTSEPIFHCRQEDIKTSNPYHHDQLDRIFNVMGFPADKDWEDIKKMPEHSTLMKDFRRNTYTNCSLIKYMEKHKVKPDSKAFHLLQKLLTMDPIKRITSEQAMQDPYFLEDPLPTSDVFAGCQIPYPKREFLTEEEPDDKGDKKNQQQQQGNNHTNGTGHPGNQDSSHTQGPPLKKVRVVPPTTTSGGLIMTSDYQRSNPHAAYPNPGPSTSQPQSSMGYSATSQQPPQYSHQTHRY
T8 sequence (P11021 19-654): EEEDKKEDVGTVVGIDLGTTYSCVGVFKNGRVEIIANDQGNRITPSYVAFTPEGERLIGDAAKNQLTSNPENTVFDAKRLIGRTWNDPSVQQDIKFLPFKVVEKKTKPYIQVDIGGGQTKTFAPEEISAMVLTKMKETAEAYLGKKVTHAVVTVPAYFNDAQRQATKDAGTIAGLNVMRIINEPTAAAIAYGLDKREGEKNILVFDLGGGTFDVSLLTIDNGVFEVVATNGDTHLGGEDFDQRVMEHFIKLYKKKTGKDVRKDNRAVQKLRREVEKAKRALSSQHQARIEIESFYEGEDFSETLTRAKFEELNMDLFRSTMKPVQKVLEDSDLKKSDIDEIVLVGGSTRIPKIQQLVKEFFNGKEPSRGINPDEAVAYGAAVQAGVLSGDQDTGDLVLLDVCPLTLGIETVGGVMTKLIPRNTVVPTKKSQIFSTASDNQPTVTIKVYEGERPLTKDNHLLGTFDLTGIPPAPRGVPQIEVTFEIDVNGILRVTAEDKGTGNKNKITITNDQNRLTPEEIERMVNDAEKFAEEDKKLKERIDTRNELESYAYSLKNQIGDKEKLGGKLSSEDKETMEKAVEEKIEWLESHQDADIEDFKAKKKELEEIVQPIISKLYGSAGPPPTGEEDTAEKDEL

SMILES | Average LFQ PON_WT [1] | Average LFQ PON_WT [2] | Average LFQ PON_WT [3] | Average LFQ PON_WT [4] | Average LFQ PON_WT [5] | Average LFQ PON_WT [6] | Average LFQ PON_WT [7] | Average LFQ PON_WT [8] | Average LFQ PON_WT [9] | Average LFQ PON_WT [10] | Average LFQ PON_WT [11] | Average LFQ PON_WT [12] | Average LFQ PON_WT [13] | increase in serum levels of TNF in mice challenged with MDP (C57Bl6/J mice)
Cc1ccc(C(=O)Nc2ccc(CN3CCN(C)CC3)c(C(F)(F)F)c2)cc1C#Cc1cnc2cccnn12 [PON] | 23.7078 | 20.9839 | 29.1615 | 26.25 | 20.775 | 21.0026 | 25.3624 | 23.5505 | 23.7419 | 21.415 | 24.4278 | 21.1903 | 23.6834 | –
Cc1ccc(-c2nn(C(C)(C)CNC(=O)c3ccncc3)c3ncnc(N)c23)cc1 [WEHI‐345, reference compound] | – | – | – | – | – | – | – | – | – | – | – | – | – | only partially inhibited

— publication PMC6120666 (The EMBO Journal, 2018)
